Source: article PMC12029836, “Phytotoxicity, Cytotoxicity, and Antimicrobial Activity of Triethanolammonium Amino Acids Salts” (Molecules, 2025)
Several values for one entry are separate records, joined by “and”; a condition that tells them apart may be missing. Identical values can stand only once. Like-named read-outs stand apart in the source and are kept apart here.

Tests used:
[1] = system: Lepidium sativum L. seeds; details: 24 h incubation, mean(±SD), n = 3
[2] = system: Lepidium sativum L. roots; details: 24 h incubation, mean(±SD), n = 3
[3] = system: C. albicans ATCC 10231; assay: Antimicrobial activity, broth microdilution MIC/MBC; type: cell-based, Candida albicans; details: C. albicans ATCC 10231, 24 h at 37 °C, at least 90% growth inhibition; nd—not detected
[4] = system: L929 fibroblasts; assay: Mammalian cell cytotoxicity screening, resazurin viability; type: cell-based, mouse
[5] = system: E. coli ATCC 8739; assay: Antimicrobial activity, broth microdilution MIC/MBC; type: cell-based, Escherichia coli; details: E. coli ATCC 8739, 24 h at 37 °C, at least 90% growth inhibition; nd—not detected
[6] = 0.01% (w/w) compound in the medium
[7] = 0.03% (w/w) compound in the medium
[8] = 0.05% (w/w) compound in the medium
[9] = 0.10% (w/w) compound in the medium
[10] = 0.30% (w/w) compound in the medium
[11] = 0.50% (w/w) compound in the medium
[12] = 1.00% (w/w) compound in the medium
[13] = 2.00% (w/w) compound in the medium
[14] = 3.00% (w/w) compound in the medium
[15] = 4.00% (w/w) compound in the medium
[16] = 5.00% (w/w) compound in the medium

Row | Compound | Inhibition of the Lepidium sativum seeds germination (ISG, %) [1, 6] | Inhibition of the Lepidium sativum seeds germination (ISG, %) [1, 7] | Inhibition of the Lepidium sativum seeds germination (ISG, %) [1, 8] | Inhibition of the Lepidium sativum seeds germination (ISG, %) [1, 9] | Inhibition of the Lepidium sativum seeds germination (ISG, %) [1, 10] | Inhibition of the Lepidium sativum seeds germination (ISG, %) [1, 11] | Inhibition of the Lepidium sativum seeds germination (ISG, %) [1, 12] | Inhibition of the Lepidium sativum seeds germination (ISG, %) [1, 13] | Inhibition of the Lepidium sativum seeds germination (ISG, %) [1, 15] | Inhibition of the Lepidium sativum seeds germination (ISG, %) [1, 16] | Inhibition of the root growth in pregerminated Lepidium sativum seeds (IRG, %) [2, 6] | Inhibition of the root growth in pregerminated Lepidium sativum seeds (IRG, %) [2, 7] | Inhibition of the root growth in pregerminated Lepidium sativum seeds (IRG, %) [2, 8] | Inhibition of the root growth in pregerminated Lepidium sativum seeds (IRG, %) [2, 10] | Inhibition of the root growth in pregerminated Lepidium sativum seeds (IRG, %) [2, 11] | Inhibition of the root growth in pregerminated Lepidium sativum seeds (IRG, %) [2, 12] | Inhibition of the root growth in pregerminated Lepidium sativum seeds (IRG, %) [2, 13] | Inhibition of the root growth in pregerminated Lepidium sativum seeds (IRG, %) [2, 14] | Inhibition of the root growth in pregerminated Lepidium sativum seeds (IRG, %) [2, 15] | Inhibition of the root growth in pregerminated Lepidium sativum seeds (IRG, %) [2, 16] | also measured
1 | N[C@@H](Cc1c[nH]cn1)C(=O)O.OCCN(CCO)CCO [[TEA][His]] | 0.0(±0.0) % | 1.9(±0.5) % | 3.7(±0.9) % | 5.6(±0.5) % | 7.4(±0.5) % | 9.3(±0.5) % | 12.0(±1.4) % | 14.8(±0.9) % | 27.8(±2.8) % | 74.1(±0.5) % | 1.1(±2.2) % | 12.9(±2.1) % | 15.7(±2.2) % | 28.6% | 37.1(±2.0) % | 48.6(±1.6) % | 62.9(±1.2) % | 72.9(±0.9) % | 80.0(±0.8) % | 84.3(±0.7) % | Inhibition of the Lepidium sativum seeds germination (ISG, %) [1, 14]: 25.9(±1.2) %; Inhibition of the root growth in pregerminated Lepidium sativum seeds (IRG, %) [2, 9]: 22.1(±2.1) %; MIC (%) [3]: 2.50%
2 | CC(C)C[C@H](N)C(=O)O.OCCN(CCO)CCO [[TEA][Leu]] | 0.0(±1.9) % | 0.0(±1.9) % | 5.7(±0.5) % | 6.6(±0.9) % | 7.5(±2.1) % | 11.3(±0.8) % | 15.1(±1.6) % | 32.1(±0.1) % | 84.9(±2.5) % | 100(±0.1) % | 0.0(±0.0) % | 8.9(±2.5) % | 10.5(±2.1) % | 30.0(±1.9) % | 39.9(±1.5) % | 53.0(±1.0) % | 67.9(±0.9) % | 71.6(±0.8) % | 88.7(±0.7) % | 94.7(±0.5) % | Inhibition of the Lepidium sativum seeds germination (ISG, %) [1, 14]: 58.5%; Inhibition of the root growth in pregerminated Lepidium sativum seeds (IRG, %) [2, 9]: 20.3(±1.7) %; ED20 ([4]; 24h exposure): 0.23±0.02%; ED50 ([4]; 24h exposure): 0.51±0.22%; ED80 ([4]; 24h exposure): 0.93±0.07%; ED20 ([4]; 48h exposure): 0.21±0.01%; ED50 ([4]; 48h exposure): 0.51±0.01%; ED80 ([4]; 48h exposure): 0.82±0.03%
3 | CC(O)C(N)C(=O)O.OCCN(CCO)CCO [[TEA][Thr]] | 0.0(±0.0) % | 3.8(±0.1) % | 6.7(±0.8) % | 11.3(±1.7) % | 15.1(±0.8) % | 16.8(±0.9) % | 18.9(±1.7) % | 21.7(±0.8) % | 45.3(±2.1) % | – | 0.0(±0.0) % | 17.7(±2.3) % | 19.7(±2.4) % | 37.8% | 66.6(±1.3) % | 73.7(±1.0) % | 80.3(±0.9) % | 88.0(±0.8) % | 92.7(±0.6) % | 96.2(±0.5) % | MIC (%) [5]: 7.50%; Inhibition of the root growth in pregerminated Lepidium sativum seeds (IRG, %) [2, 9]: 21.8(±1.9) %; ED20 ([4]; 24h exposure): 0.40±0.09%; ED50 ([4]; 24h exposure): 0.57±0.03%; ED80 ([4]; 24h exposure): 0.73±0.14%; ED20 ([4]; 48h exposure): 0.26±0.03%; ED50 ([4]; 48h exposure): 0.38±0.02%; ED80 ([4]; 48h exposure): 0.50±0.03%; MIC (%) [3]: 3.75%
4 | CSCC[C@H](N)C(=O)O.OCCN(CCO)CCO [[TEA][Met]] | 0.0(±0.2) % | 0.0(±0.1) % | 0.0(±0.1) % | 0.0(±0.1) % | 0.0(±0.0) % | 1.9(±1.3) % | 3.7(±0.5) % | 7.4(±0.9) % | 29.6(±0.8) % | 37.0(±2.5) % | 0.0(±0.0) % | 0.0(±0.0) % | 0.0(±0.0) % | 22.8(±3.3) % | 30.1(±3.8) % | 52.1(±2.2) % | 60.7(±2.0) % | 64.9(±1.4) % | 77.4(±1.3) % | 77.8(±0.9) % | ED20 ([4]; 24h exposure): 0.08±0.01%; ED50 ([4]; 24h exposure): 0.29±0.02% and 0.29%; ED80 ([4]; 24h exposure): 0.74±0.08%; ED20 ([4]; 48h exposure): 0.09±0.01%; ED50 ([4]; 48h exposure): 0.31±0.02%; ED80 ([4]; 48h exposure): 0.78±0.06%; MIC (%) [3]: 5.00%
